The kinase profiling compilation of Christmann-Franck et al. (2016)
Each block holds one compound with its values, some of them ahead of it.

What was measured:
Assay in all cases: radiometric filter-binding kinase assay
[1] = target: ABL1 (human) (UniProt P00519)
[2] = target: CDK9 CCNT1 (human) (UniProt P50750+O60563)
[3] = target: CSNK1G2 (human) (UniProt P78368)
[4] = target: DDR2 (human) (UniProt Q16832)
[5] = target: EIF2AK3 (human) (UniProt Q9NZJ5)
[6] = target: IRAK1 (human) (UniProt P51617)
[7] = target: MAP4K3 (human) (UniProt Q8IVH8)
[8] = target: MAP4K5 (human) (UniProt Q9Y4K4)
[9] = target: MAPK11 (human) (UniProt Q15759)
[10] = test system: OXSR1 (human), O95747 [T185E]
[11] = target: PAK6 (human) (UniProt Q9NQU5)
[12] = target: PDGFRA (human) (UniProt P16234)
[13] = target: PRKAA1 PRKAB2 PRKAG1 (human) (UniProt O43741+Q13131+P54619)
[14] = target: PRKCG (human) (UniProt P05129)
[15] = target: PTK6 (human) (UniProt Q13882)
[16] = target: SIK2 (human) (UniProt Q9H0K1)
[17] = target: SIK3 (human) (UniProt Q9Y2K2)
[18] = target: STK16 (human) (UniProt O75716)
[19] = target: STK24 (human) (UniProt Q9Y6E0)
[20] = target: STK33 (human) (UniProt Q9BYT3)
[21] = target: TEK (human) (UniProt Q02763)
[22] = target: TESK1 (human) (UniProt Q15569)
[23] = target: TLK1 (human) (UniProt Q9UKI8)
[24] = target: TSSK1B (human) (UniProt Q9BXA7)
[25] = target: TTBK1 (human) (UniProt Q5TCY1)
[26] = target: TTBK2 (human) (UniProt Q6IQ55)
[27] = target: ULK1 (human) (UniProt O75385)
[28] = target: ULK2 (human) (UniProt Q8IYT8)
[29] = target: WNK1 (human) (UniProt Q9H4A3)
[30] = target: ZAP70 (human) (UniProt P43403)

Sequence of MAP4K5 (human) (Q9Y4K4 whole entry, looked up): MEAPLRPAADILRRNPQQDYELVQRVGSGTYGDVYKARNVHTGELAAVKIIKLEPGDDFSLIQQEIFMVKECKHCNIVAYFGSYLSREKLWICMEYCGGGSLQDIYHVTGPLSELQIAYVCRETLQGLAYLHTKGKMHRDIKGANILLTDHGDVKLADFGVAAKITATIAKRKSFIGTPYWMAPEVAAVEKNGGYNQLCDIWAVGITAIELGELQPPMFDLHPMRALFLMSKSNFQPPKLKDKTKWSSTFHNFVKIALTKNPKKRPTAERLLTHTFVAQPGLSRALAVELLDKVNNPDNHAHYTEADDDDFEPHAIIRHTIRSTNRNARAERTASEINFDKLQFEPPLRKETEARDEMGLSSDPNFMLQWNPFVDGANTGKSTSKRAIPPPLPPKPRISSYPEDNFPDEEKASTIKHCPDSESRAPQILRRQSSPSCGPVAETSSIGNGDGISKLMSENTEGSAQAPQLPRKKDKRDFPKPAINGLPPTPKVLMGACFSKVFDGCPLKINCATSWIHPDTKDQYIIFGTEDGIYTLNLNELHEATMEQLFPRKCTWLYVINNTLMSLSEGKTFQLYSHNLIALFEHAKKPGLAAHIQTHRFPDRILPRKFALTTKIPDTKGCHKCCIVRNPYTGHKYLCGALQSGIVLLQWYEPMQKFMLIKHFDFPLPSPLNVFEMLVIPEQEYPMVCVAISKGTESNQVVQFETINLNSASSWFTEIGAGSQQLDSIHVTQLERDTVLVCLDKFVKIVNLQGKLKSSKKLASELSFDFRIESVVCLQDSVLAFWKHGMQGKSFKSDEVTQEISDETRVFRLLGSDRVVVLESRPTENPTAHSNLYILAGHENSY
Sequence of EIF2AK3 (human) (Q9NZJ5 whole entry, looked up): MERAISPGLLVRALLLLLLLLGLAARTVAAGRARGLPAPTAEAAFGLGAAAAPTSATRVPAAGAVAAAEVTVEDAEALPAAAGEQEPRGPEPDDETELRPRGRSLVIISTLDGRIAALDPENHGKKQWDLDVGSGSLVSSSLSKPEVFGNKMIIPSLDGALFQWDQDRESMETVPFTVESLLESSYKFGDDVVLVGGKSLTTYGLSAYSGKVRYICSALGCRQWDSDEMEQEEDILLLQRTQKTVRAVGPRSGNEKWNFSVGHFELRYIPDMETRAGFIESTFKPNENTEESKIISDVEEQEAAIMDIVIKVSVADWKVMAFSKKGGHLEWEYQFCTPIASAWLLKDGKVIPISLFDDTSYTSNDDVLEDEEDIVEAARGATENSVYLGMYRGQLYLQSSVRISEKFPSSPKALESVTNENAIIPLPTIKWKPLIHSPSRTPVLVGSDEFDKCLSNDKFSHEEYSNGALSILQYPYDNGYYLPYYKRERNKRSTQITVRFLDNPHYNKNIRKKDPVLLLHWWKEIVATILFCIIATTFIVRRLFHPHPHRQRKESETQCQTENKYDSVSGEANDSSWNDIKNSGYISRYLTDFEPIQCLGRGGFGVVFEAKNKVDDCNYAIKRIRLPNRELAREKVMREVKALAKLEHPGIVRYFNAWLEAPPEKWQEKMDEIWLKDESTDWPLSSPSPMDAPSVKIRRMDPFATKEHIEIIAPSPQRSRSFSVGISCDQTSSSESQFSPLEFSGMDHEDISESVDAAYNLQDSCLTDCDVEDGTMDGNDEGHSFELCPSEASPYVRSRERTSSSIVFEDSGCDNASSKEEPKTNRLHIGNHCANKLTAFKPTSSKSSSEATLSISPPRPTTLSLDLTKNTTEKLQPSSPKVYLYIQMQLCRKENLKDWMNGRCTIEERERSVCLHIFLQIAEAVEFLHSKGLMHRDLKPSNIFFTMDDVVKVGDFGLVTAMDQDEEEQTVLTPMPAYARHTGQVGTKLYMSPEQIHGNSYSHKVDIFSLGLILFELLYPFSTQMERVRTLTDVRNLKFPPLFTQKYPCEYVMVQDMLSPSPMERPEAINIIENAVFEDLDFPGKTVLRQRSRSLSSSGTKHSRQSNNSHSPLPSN
Sequence of ULK1 (human) (O75385 whole entry, looked up): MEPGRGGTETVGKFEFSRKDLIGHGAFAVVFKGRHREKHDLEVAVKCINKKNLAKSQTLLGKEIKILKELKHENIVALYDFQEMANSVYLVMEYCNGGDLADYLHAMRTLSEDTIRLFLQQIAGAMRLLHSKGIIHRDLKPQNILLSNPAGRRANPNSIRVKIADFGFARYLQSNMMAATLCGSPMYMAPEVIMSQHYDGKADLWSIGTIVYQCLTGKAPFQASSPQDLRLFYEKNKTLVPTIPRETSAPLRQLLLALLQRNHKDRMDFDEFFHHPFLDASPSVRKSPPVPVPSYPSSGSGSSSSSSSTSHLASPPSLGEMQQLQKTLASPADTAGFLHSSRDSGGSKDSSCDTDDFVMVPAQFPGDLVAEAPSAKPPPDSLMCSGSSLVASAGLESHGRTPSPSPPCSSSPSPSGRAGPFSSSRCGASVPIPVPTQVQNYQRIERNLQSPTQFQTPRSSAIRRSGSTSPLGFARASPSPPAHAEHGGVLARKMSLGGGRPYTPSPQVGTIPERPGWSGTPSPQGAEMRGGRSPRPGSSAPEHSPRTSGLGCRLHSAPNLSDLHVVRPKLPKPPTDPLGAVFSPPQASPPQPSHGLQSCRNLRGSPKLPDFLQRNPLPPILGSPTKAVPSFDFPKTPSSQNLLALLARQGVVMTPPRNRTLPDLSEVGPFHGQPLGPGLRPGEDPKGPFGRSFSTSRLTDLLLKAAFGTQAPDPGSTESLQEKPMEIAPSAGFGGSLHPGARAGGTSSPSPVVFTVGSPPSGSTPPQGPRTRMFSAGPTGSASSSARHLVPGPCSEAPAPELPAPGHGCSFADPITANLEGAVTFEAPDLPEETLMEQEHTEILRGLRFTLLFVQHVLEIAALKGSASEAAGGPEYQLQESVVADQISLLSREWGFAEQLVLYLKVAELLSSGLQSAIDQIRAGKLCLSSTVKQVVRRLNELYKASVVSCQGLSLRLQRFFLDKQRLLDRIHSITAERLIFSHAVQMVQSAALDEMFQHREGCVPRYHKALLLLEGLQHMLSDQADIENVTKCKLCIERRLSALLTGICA
Sequence of TEK (human) (Q02763 whole entry, looked up): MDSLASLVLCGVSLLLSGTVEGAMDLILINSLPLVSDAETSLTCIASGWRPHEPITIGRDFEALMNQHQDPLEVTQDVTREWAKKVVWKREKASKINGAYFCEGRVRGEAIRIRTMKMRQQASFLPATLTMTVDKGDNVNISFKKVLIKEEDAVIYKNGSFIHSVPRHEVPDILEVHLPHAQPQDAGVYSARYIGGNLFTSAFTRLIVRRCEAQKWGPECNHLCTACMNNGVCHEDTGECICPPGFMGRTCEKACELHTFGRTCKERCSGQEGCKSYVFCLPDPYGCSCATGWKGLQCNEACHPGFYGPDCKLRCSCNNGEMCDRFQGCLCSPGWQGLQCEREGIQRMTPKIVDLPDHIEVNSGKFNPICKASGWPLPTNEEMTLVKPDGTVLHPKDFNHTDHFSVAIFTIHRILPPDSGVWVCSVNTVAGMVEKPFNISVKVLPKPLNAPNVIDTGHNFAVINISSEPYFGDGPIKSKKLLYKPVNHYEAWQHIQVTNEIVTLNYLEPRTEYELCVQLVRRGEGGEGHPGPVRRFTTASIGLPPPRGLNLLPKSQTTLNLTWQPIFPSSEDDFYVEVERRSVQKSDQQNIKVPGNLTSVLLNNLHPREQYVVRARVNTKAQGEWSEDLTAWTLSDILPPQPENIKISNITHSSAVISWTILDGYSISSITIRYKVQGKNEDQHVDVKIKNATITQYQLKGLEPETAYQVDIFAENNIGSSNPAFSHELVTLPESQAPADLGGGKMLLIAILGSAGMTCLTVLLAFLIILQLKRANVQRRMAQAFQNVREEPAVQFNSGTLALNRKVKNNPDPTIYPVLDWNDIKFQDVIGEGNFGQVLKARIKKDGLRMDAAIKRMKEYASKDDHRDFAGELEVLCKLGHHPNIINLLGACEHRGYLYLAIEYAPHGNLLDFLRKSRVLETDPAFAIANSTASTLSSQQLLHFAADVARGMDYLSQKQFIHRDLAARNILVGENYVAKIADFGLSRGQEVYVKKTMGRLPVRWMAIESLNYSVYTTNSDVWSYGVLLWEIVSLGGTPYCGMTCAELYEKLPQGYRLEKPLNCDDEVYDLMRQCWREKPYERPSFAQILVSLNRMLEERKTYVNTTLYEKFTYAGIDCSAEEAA
Sequence of OXSR1 (human), O95747 [T185E] (O95747 whole entry T185E, looked up): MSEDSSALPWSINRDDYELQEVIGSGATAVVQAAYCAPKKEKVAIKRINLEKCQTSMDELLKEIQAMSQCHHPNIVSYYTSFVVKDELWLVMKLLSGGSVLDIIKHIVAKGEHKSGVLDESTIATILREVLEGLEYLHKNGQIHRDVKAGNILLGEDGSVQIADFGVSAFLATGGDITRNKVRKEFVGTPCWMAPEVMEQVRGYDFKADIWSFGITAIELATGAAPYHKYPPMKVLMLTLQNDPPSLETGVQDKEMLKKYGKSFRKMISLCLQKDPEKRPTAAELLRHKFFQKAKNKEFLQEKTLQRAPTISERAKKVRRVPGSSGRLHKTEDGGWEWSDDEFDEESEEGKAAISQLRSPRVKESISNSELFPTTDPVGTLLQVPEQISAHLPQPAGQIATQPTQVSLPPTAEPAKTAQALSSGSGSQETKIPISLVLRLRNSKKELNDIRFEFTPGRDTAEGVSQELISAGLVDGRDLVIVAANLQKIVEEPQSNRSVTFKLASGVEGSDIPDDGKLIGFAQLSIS
Sequence of STK16 (human) (O75716 whole entry, looked up): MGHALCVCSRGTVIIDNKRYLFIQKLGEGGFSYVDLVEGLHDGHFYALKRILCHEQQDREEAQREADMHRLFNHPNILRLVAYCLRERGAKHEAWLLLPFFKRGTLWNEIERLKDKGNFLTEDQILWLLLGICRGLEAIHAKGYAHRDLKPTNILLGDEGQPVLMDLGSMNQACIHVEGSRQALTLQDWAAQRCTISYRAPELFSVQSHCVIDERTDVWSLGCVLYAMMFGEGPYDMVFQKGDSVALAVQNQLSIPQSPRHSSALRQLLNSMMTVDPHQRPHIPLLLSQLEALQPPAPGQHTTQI

- residual activity ([1]; compound 0.1 µM): 120%
- residual activity ([1]; compound 1.0 µM): 113%
- residual activity ([1]; compound 10.0 µM): 76%
- residual activity ([2]; compound 0.1 µM): 109%
- residual activity ([2]; compound 1.0 µM): 96%
- residual activity ([2]; compound 10.0 µM): 51%
- residual activity ([3]; compound 0.1 µM): 123%
- residual activity ([3]; compound 1.0 µM): 112%
- residual activity ([3]; compound 10.0 µM): 102%
- residual activity ([4]; compound 0.1 µM): 105%
- residual activity ([4]; compound 1.0 µM): 101%
- residual activity ([4]; compound 10.0 µM): 91%
- residual activity ([5]; compound 0.1 µM): 114%
- residual activity ([5]; compound 1.0 µM): 101%
- residual activity ([5]; compound 10.0 µM): 73%
- residual activity ([6]; compound 0.1 µM): 104%
- residual activity ([6]; compound 1.0 µM): 77%
- residual activity ([6]; compound 10.0 µM): 27%
- residual activity ([7]; compound 0.1 µM): 98%
- residual activity ([7]; compound 1.0 µM): 72%
- residual activity ([7]; compound 10.0 µM): 41%
- residual activity ([8]; compound 0.1 µM): 111%
- residual activity ([8]; compound 1.0 µM): 108%
- residual activity ([8]; compound 10.0 µM): 61%
- residual activity ([9]; compound 0.1 µM): 118%
- residual activity ([9]; compound 1.0 µM): 126%
- residual activity ([9]; compound 10.0 µM): 117%
- residual activity ([10]; compound 0.1 µM): 113%
- residual activity ([10]; compound 1.0 µM): 112%
- residual activity ([10]; compound 10.0 µM): 118%
- residual activity ([11]; compound 0.1 µM): 117%
- residual activity ([11]; compound 1.0 µM): 106%
- residual activity ([11]; compound 10.0 µM): 116%
- residual activity ([12]; compound 0.1 µM): 104%
- residual activity ([12]; compound 1.0 µM): 108%
- residual activity ([13]; compound 0.1 µM): 68%
- residual activity ([13]; compound 1.0 µM): 21%
- residual activity ([13]; compound 10.0 µM): 6%
- residual activity ([14]; compound 0.1 µM): 118%
- residual activity ([14]; compound 1.0 µM): 110%
- residual activity ([14]; compound 10.0 µM): 101%
- residual activity ([15]; compound 0.1 µM): 121%
- residual activity ([15]; compound 1.0 µM): 94%
- residual activity ([15]; compound 10.0 µM): 92%
- residual activity ([16]; compound 0.1 µM): 99%
- residual activity ([16]; compound 1.0 µM): 86%
- residual activity ([16]; compound 10.0 µM): 77%
- residual activity ([17]; compound 0.1 µM): 98%
- residual activity ([17]; compound 1.0 µM): 99%
- residual activity ([17]; compound 10.0 µM): 73%
- residual activity ([18]; compound 0.1 µM): 117%
- residual activity ([18]; compound 1.0 µM): 118%
- residual activity ([18]; compound 10.0 µM): 105%
- residual activity ([19]; compound 1.0 µM): 109%
- residual activity ([20]; compound 0.1 µM): 105%
- residual activity ([20]; compound 1.0 µM): 83%
- residual activity ([20]; compound 10.0 µM): 38%
- residual activity ([21]; compound 0.1 µM): 105%
- residual activity ([21]; compound 1.0 µM): 86%
- residual activity ([21]; compound 10.0 µM): 88%
- residual activity ([22]; compound 0.1 µM): 112%
- residual activity ([22]; compound 1.0 µM): 111%
- residual activity ([22]; compound 10.0 µM): 101%
- residual activity ([23]; compound 0.1 µM): 113%
- residual activity ([23]; compound 1.0 µM): 107%
- residual activity ([23]; compound 10.0 µM): 100%
- residual activity ([24]; compound 0.1 µM): 97%
- residual activity ([24]; compound 1.0 µM): 85%
- residual activity ([24]; compound 10.0 µM): 89%
- residual activity ([25]; compound 0.1 µM): 103%
- residual activity ([25]; compound 1.0 µM): 104%
- residual activity ([25]; compound 10.0 µM): 96%
- residual activity ([26]; compound 0.1 µM): 122%
- residual activity ([26]; compound 1.0 µM): 122%
- residual activity ([26]; compound 10.0 µM): 103%
- residual activity ([27]; compound 0.1 µM): 115%
- residual activity ([27]; compound 1.0 µM): 89%
- residual activity ([27]; compound 10.0 µM): 75%
- residual activity ([28]; compound 0.1 µM): 109%
- residual activity ([28]; compound 10.0 µM): 54%
- residual activity ([29]; compound 0.1 µM): 113%
- residual activity ([29]; compound 1.0 µM): 108%
- residual activity ([29]; compound 10.0 µM): 119%
- residual activity ([30]; compound 0.1 µM): 93%
- residual activity ([30]; compound 1.0 µM): 100%
SMILES: Cc1ccc(-c2ccc3c(ccc4sc5c(c43)NC[C@@H](C)NC5=O)n2)cn1

- residual activity ([1]; compound 0.01 µM): 96%
- residual activity ([1]; compound 0.1 µM): 97%
- residual activity ([1]; compound 1.0 µM): 105%
- residual activity ([2]; compound 0.01 µM): 97%
- residual activity ([2]; compound 0.1 µM): 117%
- residual activity ([2]; compound 1.0 µM): 111%
- residual activity ([3]; compound 0.01 µM): 100%
- residual activity ([3]; compound 0.1 µM): 100%
- residual activity ([3]; compound 1.0 µM): 109%
- residual activity ([4]; compound 0.01 µM): 91%
- residual activity ([4]; compound 0.1 µM): 113%
- residual activity ([5]; compound 0.01 µM): 105%
- residual activity ([5]; compound 0.1 µM): 92%
- residual activity ([6]; compound 0.01 µM): 97%
- residual activity ([6]; compound 0.1 µM): 97%
- residual activity ([9]; compound 0.01 µM): 88%
- residual activity ([9]; compound 0.1 µM): 93%
- residual activity ([9]; compound 1.0 µM): 98%
- residual activity ([10]; compound 0.01 µM): 104%
- residual activity ([10]; compound 0.1 µM): 99%
- residual activity ([11]; compound 0.01 µM): 92%
- residual activity ([11]; compound 0.1 µM): 95%
- residual activity ([11]; compound 1.0 µM): 95%
- residual activity ([14]; compound 0.01 µM): 103%
- residual activity ([14]; compound 0.1 µM): 109%
- residual activity ([14]; compound 1.0 µM): 89%
- residual activity ([15]; compound 0.01 µM): 101%
- residual activity ([15]; compound 1.0 µM): 48%
- residual activity ([16]; compound 0.01 µM): 106%
- residual activity ([16]; compound 0.1 µM): 107%
- residual activity ([16]; compound 1.0 µM): 88%
- residual activity ([17]; compound 0.01 µM): 102%
- residual activity ([17]; compound 0.1 µM): 93%
- residual activity ([17]; compound 1.0 µM): 94%
- residual activity ([18]; compound 0.01 µM): 94%
- residual activity ([18]; compound 1.0 µM): 102%
- residual activity ([19]; compound 0.01 µM): 106%
- residual activity ([19]; compound 0.1 µM): 104%
- residual activity ([19]; compound 1.0 µM): 114%
- residual activity ([20]; compound 0.01 µM): 113%
- residual activity ([20]; compound 0.1 µM): 105%
- residual activity ([20]; compound 1.0 µM): 113%
- residual activity ([21]; compound 0.01 µM): 122%
- residual activity ([21]; compound 0.1 µM): 101%
- residual activity ([21]; compound 1.0 µM): 122%
- residual activity ([22]; compound 0.1 µM): 107%
- residual activity ([22]; compound 1.0 µM): 92%
- residual activity ([23]; compound 0.01 µM): 95%
- residual activity ([23]; compound 0.1 µM): 101%
- residual activity ([24]; compound 0.01 µM): 112%
- residual activity ([24]; compound 0.1 µM): 110%
- residual activity ([24]; compound 1.0 µM): 99%
- residual activity ([25]; compound 0.01 µM): 89%
- residual activity ([25]; compound 0.1 µM): 82%
- residual activity ([27]; compound 0.01 µM): 91%
- residual activity ([27]; compound 0.1 µM): 88%
- residual activity ([27]; compound 1.0 µM): 92%
- residual activity ([28]; compound 0.01 µM): 94%
- residual activity ([28]; compound 0.1 µM): 96%
- residual activity ([29]; compound 0.01 µM): 94%
- residual activity ([29]; compound 0.1 µM): 107%
- residual activity ([29]; compound 1.0 µM): 106%
- residual activity ([30]; compound 0.1 µM): 101%
- residual activity ([30]; compound 1.0 µM): 103%
SMILES: COc1cc(O)c2c(c1)[C@H]1OC1C[C@H](O)[C@H](O)C(=O)/C=C\C[C@H](C)OC2=O (some centres undefined)

- residual activity ([1]; compound 0.1 µM): 77%
- residual activity ([1]; compound 1.0 µM): 85%
- residual activity ([2]; compound 0.1 µM): 22%
- residual activity ([2]; compound 1.0 µM): 42%
- residual activity ([3]; compound 0.1 µM): 88%
- residual activity ([3]; compound 1.0 µM): 88%
- residual activity ([4]; compound 0.1 µM): 89%
- residual activity ([4]; compound 1.0 µM): 108%
- residual activity ([5]; compound 0.1 µM): 90%
- residual activity ([5]; compound 1.0 µM): 99%
- residual activity ([6]; compound 0.1 µM): 26%
- residual activity ([6]; compound 1.0 µM): 5%
- residual activity ([9]; compound 0.1 µM): 96%
- residual activity ([9]; compound 1.0 µM): 82%
- residual activity ([10]; compound 0.1 µM): 99%
- residual activity ([10]; compound 1.0 µM): 105%
- residual activity ([11]; compound 0.1 µM): 87%
- residual activity ([11]; compound 1.0 µM): 103%
- residual activity ([14]; compound 0.1 µM): 96%
- residual activity ([14]; compound 1.0 µM): 101%
- residual activity ([15]; compound 0.1 µM): 81%
- residual activity ([15]; compound 1.0 µM): 81%
- residual activity ([16]; compound 0.1 µM): 78%
- residual activity ([16]; compound 1.0 µM): 67%
- residual activity ([17]; compound 0.1 µM): 81%
- residual activity ([17]; compound 1.0 µM): 64%
- residual activity ([18]; compound 0.1 µM): 108%
- residual activity ([18]; compound 1.0 µM): 103%
- residual activity ([19]; compound 0.1 µM): 94%
- residual activity ([19]; compound 1.0 µM): 93%
- residual activity ([20]; compound 0.1 µM): 92%
- residual activity ([20]; compound 1.0 µM): 91%
- residual activity ([21]; compound 0.1 µM): 94%
- residual activity ([21]; compound 1.0 µM): 84%
- residual activity ([22]; compound 0.1 µM): 90%
- residual activity ([22]; compound 1.0 µM): 98%
- residual activity ([23]; compound 0.1 µM): 99%
- residual activity ([23]; compound 1.0 µM): 98%
- residual activity ([24]; compound 0.1 µM): 88%
- residual activity ([24]; compound 1.0 µM): 101%
- residual activity ([25]; compound 0.1 µM): 88%
- residual activity ([25]; compound 1.0 µM): 79%
- residual activity ([27]; compound 0.1 µM): 37%
- residual activity ([27]; compound 1.0 µM): 63%
- residual activity ([28]; compound 0.1 µM): 50%
- residual activity ([28]; compound 1.0 µM): 69%
- residual activity ([29]; compound 0.1 µM): 103%
- residual activity ([29]; compound 1.0 µM): 117%
- residual activity ([30]; compound 0.1 µM): 82%
- residual activity ([30]; compound 1.0 µM): 123%
SMILES: CN(C)C/C=C/C(=O)Nc1cccc(C(=O)Nc2ccc(Nc3nccc(-c4cccnc4)n3)cc2)c1
